Patent US20160296606A1, “Cellular Factor-Containing Solution Compositions for the Treatment of Rhinovirus Infection and Symptoms” (Noveome Biotherapeutics, Inc., priority 2015, published 2016)
Counter-ions that a name gives are not always drawn.

Tests used:
[1] = tested on: vascular permeability (histamine-induced); assay: Evans Blue assay of vascular permeability, histamine with ACCS or CPM (Example 6); assay type: in vivo, rats (Sprague-Dawley); settings: 198 μg total protein ACCS or 50 μg CPM
Procedure: Method: […] The Evan's Blue dye binds to albumin and other plasma proteins present in the blood and circulates throughout the animal's entire vascular system. Increased vascular permeability results in extravasation from blood vessels and capillaries of the Evans Blue dye bound to plasma protein. […] After approximately 20 min, the animals were sacrificed, and an area of skin that included the entire injection site was removed with punch biopsy.

[2] = tested on: irritant (TPA) skin inflammation; assay: Intralesional injection in irritant TPA skin (ear) inflammation in mice; assay type: in vivo
Procedure: Method: Intralesional injection into the ear was given once daily to the following groups: 1. TPA+intralesional control; 2. TPA+intralesional ACCS; 3. TPA+intralesional kenalog (10 mg/ml) (a potent intralesional corticosteroid); 4. ACCS intralesional injection alone; 5. Saline sham injections to the normal untreated ear. The endpoints for the study were ear thickness and ear weight at the end of the experiment. The thicker the ear and the increased weight gain correlates with the degree of inflammation.

[3] = tested on: vascular permeability (histamine-induced); assay: Miles assay, Evans Blue dye extravasation after intradermal injection (Example 5); assay type: in vivo, rat; settings: 1 μg histamine alone intradermally (inducer of vascular permeability)
Procedure: Method: One hundred μL of 5% Evans Blue Dye was administered intravenously to an approximately 260 gram male rat via a jugular vein catheter. The Evans Blue dye binds to albumin and other proteins present in the blood and circulates throughout the animal's entire vascular system. One hundred μL of various test articles were then injected intradermally on the flank of the animal forming a small vesicular bleb of the injected article under on the skin surface. Changes in local vascular permeability were observed by the development of a blue spot corresponding to the Evans Blue bound protein extravasate at the injection site. Results were recorded qualitatively through photograph. The changes in Evans Blue Dye extravasation was quantitatively measured by the excision of the blue skin sample after animal sacrifice and placing the excised skin sample in 1 mL of formamide in order to extract the dye. The dye was extracted over 48 hours at 60° C. The extracted dye was then read on a plate reader for absorbance measurement at 630 nm.
The local extravasation of protein-bound Evans Blue Dye at the site of injection is correlated with the increase in vascular permeability. […] Saline and ACCS were also injected alone to serve as negative controls.

CN(C)CCC(c1ccc(Cl)cc1)c1ccccn1 (centres unmarked) [CPM, chlorpheniramine maleate]
ABS 630 nm/μg tissue ([1]; histamine dose 0.05 μg intradermal): 0.07 ABS 630 nm/μg tissue
ABS 630 nm/μg tissue ([1]; histamine dose 0.5 μg intradermal): 0.10 ABS 630 nm/μg tissue
ABS 630 nm/μg tissue ([1]; histamine dose 1 μg intradermal): 0.10 ABS 630 nm/μg tissue
ABS 630 nm/μg tissue ([1]; histamine dose 3 μg intradermal): 0.11 ABS 630 nm/μg tissue

CC1(C)O[C@@H]2C[C@H]3[C@@H]4CCC5=CC(=O)C=C[C@]5(C)[C@@]4(F)[C@@H](O)C[C@]3(C)[C@]2(C(=O)CO)O1 [kenalog]
injection site finding ([2]; intralesional injection 10 mg/ml into mouse ear): induced a hematoma at the site of injection
inflammation induced by TPA (ear thickness) ([2]; intralesional injection into the ear once daily, vs TPA+control): not a substantial difference in ear thickness
ear weight ([2]; intralesional injection once daily, compared with TPA+control): no difference in ear weight

NCCc1c[nH]cn1 [histamine]
OD 630 absorbance of extracted Evans Blue dye from tissue samples [3]: 0.495 OD units
